From patent US20010042520A1, “Method for producing model animals for itching induced by disruption of cutaneous barrier function” (priority 2000, published 2001)

Assays:
Type in all cases: in vivo, male ICR mice
[1] = test system: scratching action induced by the disruption of the cutaneous barrier function of mice; assay: Scratching action of mice with disrupted cutaneous barrier function (acetone/diethylether mixture and distilled water, twice daily for 5 days); settings: for number of the scratching action based on that of the control group: 120 minutes recording, control average = 100%, average ± standard error, 8 mice; for number of the scratching action bouts per 120 minutes: 10% aqueous solution, control group 126.5±20.8, significant
Excerpt: (§1) A rostral part (4 cm^2, i.e. 2 cm×2 cm) of the back skin in each of 10 male ICR mice was shaved. Four days after the shaving, the following test was started: The skin was covered with a 2 cm×2 cm absorbent cotton impregnated with a mixture of acetone and diethylether (1:1) for 15 seconds. The skin was wiped to remove superfluous solvent, then covered with an absorbent cotton impregnated with distilled water for 30 seconds, and wiped in the same manner as that described above. This treatment for disrupting the cutaneous barrier function of the skin was conducted twice in daily at intervals of at least 8 hours for 5 days. In a control group, only the shaving was conducted.
On the next day after the completion of the 5 days treatment for disrupting the skin barrier function, each mouse was placed in each section of an acrylic acid resin cage (26×18×33 cm) divided into four sections (each section: 13×9×33 cm). After the mice was acclimatized to the cage in unmanned environment for 60 minutes, the action of each mouse was recorded for 120 minutes with a 8 mm video camera placed above the cage in such a manner that the 4 sections are in one scene. The scratching action was observed by playing back the video tape. The number of the scratching action by which the tip of a toe of a hind limb of the mouse touched the shaved part of the skin in 120 minutes was counted by the visual observation. One scratching action was a series of action beginning when the mouse raised its hind limb for starting the scratching and ending when the animal lowers its hind limb.
The effect of Terfenadine, which is a histamine H1 receptor antagonist, and that of Naloxone, which is an opioid antagonist, for relieving the itching were determined with the same test materials as those in Example 1. The barrier function-disrupting treatment was conducted in the same manner as that of Example 1. On the next day after the completion of the 5 days barrier function disrupting treatment, the scratching action of mice was recorded for 120 minutes in the same manner as that of Example 1. The observation of the behavior of the mice and the counting of the number of times of the scratching action were conducted in the same manner as that of Example 1. 10 mg/kg of Terfenadine which is the histamine H1 receptor antagonist, was perorally administered at 30 minutes before the starting to record the scratching action, or 1 mg/kg of Naloxone, which is an opioid receptor antagonist, was subcutaneously injected at 15 minutes before the starting to record the scratching action. […]
(§2) The effect of glycerol (humectant) on the skin manifestations and itching induced by the barrier disruption treatment of the present invention was determined by using the test animals similar to those used in Example 1. […] The skin manifestations were examined by the visual observation and the determination of hydration of the stratum corneum based on the relative electrostatic capacitance determined with Corneometer CM 825 (Courage+Khazaka Electronics, Cologne, Germany). Hydration of the stratum corneum was determined before starting the first barrier disrupting treatment every day and on the next day after the completion of the five days barrier disruption treatment. As for the scratching action, the scratching action of each mouse was filmed and recorded for 120 minutes in the same manner as that in Example 1 on next day after the completion of the five days barrier disruption treatment. […]

[2] = test system: hydration of the stratum corneum; assay: Hydration of the stratum corneum by relative electrostatic capacitance (Corneometer CM 825) in barrier-disrupted mice
Excerpt: as §1
as §2, with “treatment.” for “treatment. As for the scratching action, the scratching action of each mouse was filmed and recorded for 120 minutes in the same manner as that in Example 1 on next day after the completion of the five days barrier disruption treatment.”

[3] = test system: formation of scales and wrinkles induced by the cutaneous barrier disruption; assay: Visual observation of skin manifestations (scales and wrinkles) in barrier-disrupted mice
Excerpt: as §1
as §2, with “treatment.” for “treatment. As for the scratching action, the scratching action of each mouse was filmed and recorded for 120 minutes in the same manner as that in Example 1 on next day after the completion of the five days barrier disruption treatment.”

[4] = 10 mg/kg perorally 30 minutes before recording

C=CCN1CC[C@]23c4c5ccc(O)c4O[C@H]2C(=O)CC[C@@]3(O)[C@H]1C5 [Naloxone] was tested, and the “number of the scratching action based on that of the control group” value ([1]; 1 mg/kg subcutaneously 15 minutes before recording, significant vs control (5%)) was 42.5±13.1%.
CC(C)(C)c1ccc(C(O)CCCN2CCC(C(O)(c3ccccc3)c3ccccc3)CC2)cc1 (stereo not drawn) [Terfenadine] was tested, and the “suppressing effect on the scratching action” value [1, 4] was “no suppressing effect was recognized” and the “number of the scratching action based on that of the control group” value [1, 4] was 124.2±49.3%.
With OCC(O)CO [glycerol] the “number of the scratching action bouts per 120 minutes” value ([1]; 50 μl applied for 5 days, one hour after each barrier disruption treatment) was 42.5±10.0 per 120 minutes, the “number of the scratching action bouts per 120 minutes” value ([1]; 50 μl applied for one day (twice on the fifth day)) was 76.5±14.6 per 120 minutes and the “hydration of the stratum corneum (relative electrostatic capacitance)” value ([2]; 10% aqueous solution applied for 5 days, next day after the 5 days barrier disrupting treatment, 40.0±1.2 before start, control 15.5±2.1) was 44.7±3.0. For the same molecule, the “hydration of the stratum corneum (relative electrostatic capacitance)” value ([2]; 10% aqueous solution applied for one day, recovered from 20.5±1.3 after 4 days of treatment, 43.5±1.3 before start) was 41.3±2.6, the “formation of scales and wrinkles induced by the cutaneous barrier disruption” value ([3]; 10% aqueous solution applied for 5 days) was “completely inhibited” and the “scales and wrinkle formation” value ([3]; 10% aqueous solution applied for one day) was “slight scales and wrinkle formation was observed”.
